From PMC9145706 (Molecules, 2022) come the findings set out here.

This experiment deals with T1, AChE enzyme from electric eel (EeAChE) (type VI) (Electrophorus electricus, UniProt O42275).
T1 construct: purchased Sigma-Aldrich, Steinheim, Germany type VI (catalogue number not given)
As to the kind of experiment: In vitro AChE inhibition assay (modified Ellman method). Type of experiment: biochemical. On the procedure: AChE enzyme from electric eel (EeAChE) (type VI), acetylthiocholine iodide, Ellman reagent, 5,5-dithiobis-2-nitro benzoic acid (DTNB), and Eserine (standard inhibitor) were purchased from Sigma-Aldrich, Steinheim, Germany. AChE inhibitory activity was performed in vitro using a modified spectrophotometric method developed by Ellman et al.. Experiments were carried out in a 96-well microtiter plate using a Multiskan spectrum spectrophotometer. The test compounds were prepared immediately before the experiment as fresh samples. Each compound was dissolved in 200 μL methanol, 150 μL […] phosphate buffer (pH 8.0), and 20 μL AChE enzyme. An aliquot of 10 μL of resulting test solutions was mixed and incubated at 25 °C for 10 min. The sample with 10 μL of solvent (methanol) rather than the test compound served as a negative control. After 10 min, 10 μL DTNB was added to the wells and the reaction was initiated with the addition of 10 μL acetylthiocholine (ATCh). All of the samples were prepared and analyzed in triplicate. The hydrolysis of ATCh was monitored at wavelength 412 nm by measuring the formation of a yellow anion of 5-thio-2-nitrobenzoate due to the reaction of DTNB with thiocholine. The initial rate was measured as the change in optical density/min (OD/min). As the extinct coefficient of the yellow anion is known, the following equation was used to calculate the rate of the enzymatic reaction: (1) Rate (moles/L/min) = change in absorbance/εTNB where εTNB is the molar extinction coefficient value of 5-thio-2-nitrobenzoate = 13.6 × 10^3 at 412 nm.
The following formula was used to calculate the % enzyme inhibition by test compounds:(2) % inhibition = 1−Rate of change in the absorbance of test/Rate of change in the absorbance of cotrol × 100
Chalcone solutions were serially diluted to different concentrations (0.0977–50 µM) and were analyzed in triplicate using the above-described modified Ellman’s method. Finally, IC50 values were determined and statistically analyzed using EZ-Fit Enzyme Kinetic Program (Perrella Scientific Inc., Amherst, MA, USA).
In general terms: In Ellman's method for cholinesterases, released thiocholine reacts with DTNB.

The mark [1] stands for this setting: EeAChE, Ellman method, triplicate, 25 °C, pH 8.0, read-out: IC50 (AChE inhibitory activity).

Where two headings read alike, the source gives them in different places.

T1 sequence (O42275 24-633): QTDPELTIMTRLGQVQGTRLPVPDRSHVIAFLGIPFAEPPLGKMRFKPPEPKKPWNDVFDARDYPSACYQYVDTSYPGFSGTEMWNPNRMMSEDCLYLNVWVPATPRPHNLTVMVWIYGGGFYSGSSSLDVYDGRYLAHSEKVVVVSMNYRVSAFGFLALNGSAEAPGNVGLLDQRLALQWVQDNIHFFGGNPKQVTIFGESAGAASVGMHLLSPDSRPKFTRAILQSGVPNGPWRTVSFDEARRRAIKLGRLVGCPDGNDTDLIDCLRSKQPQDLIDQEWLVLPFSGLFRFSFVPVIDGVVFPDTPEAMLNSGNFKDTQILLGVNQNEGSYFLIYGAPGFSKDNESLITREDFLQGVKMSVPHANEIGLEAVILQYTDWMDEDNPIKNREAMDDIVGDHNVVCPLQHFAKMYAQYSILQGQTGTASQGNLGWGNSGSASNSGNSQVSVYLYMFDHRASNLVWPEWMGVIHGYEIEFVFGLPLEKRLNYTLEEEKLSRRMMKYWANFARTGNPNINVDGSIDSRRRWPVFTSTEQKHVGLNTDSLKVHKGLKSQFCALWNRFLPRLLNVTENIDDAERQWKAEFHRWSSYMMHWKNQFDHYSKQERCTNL

In general, IC50 refers to the point on the concentration scale where inhibition reaches its midpoint. As to `O=C(/C=C/c1ccccc1)c1ccc(Cl)cc1` [Compound C1, (E)-1-(4-chlorophenyl)-3-phenylprop-2-en-1-one], the IC50 under setting [1] worked out at 22 ± 2.8 µM.
Still for that read-out and setting: the value for `CCc1ccc(C(=O)/C=C/c2ccc([N+](=O)[O-])cc2)cc1` [Compound C2, (E)-1-(4-ethylphenyl)-3-(4-nitrophenyl)prop-2-en-1-one] was 31.2 ± 1.8 µM.
Molecule `COc1ccc(/C=C/C(=O)c2ccc(Cl)cc2)cc1` [Compound C3, (E)-1-(4-chlorophenyl)-3-(4-methoxyphenyl)prop-2-en-1-one] returned an IC50 of 32 ± 2.4 µM.
Turning to `O=C(/C=C/c1ccc([N+](=O)[O-])cc1)c1ccc(Br)cc1` [Compound C5, (E)-1-(4-bromophenyl)-3-(4-nitrophenyl)prop-2-en-1-one], under setting [1], the IC50 was determined as 37.6 ± 0.75 µM.
